Results taken from publication PMC8748916, “Microbial enzymes induce colitis by reactivating triclosan in the mouse gastrointestinal tract” (Nature Communications, 2022).
“And” between values parts separate entries of the source, which are not always exact repeats. Equal entries are not always repeated. Where two headings read alike, the source gives them in different places.

Tests used:
[1] = system: gut microbial β-glucuronidase (GUS) enzymes; assay: Catalytic efficiency assay (HPLC) of TCS-G to TCS conversion by purified GUS enzymes; assay type: biochemical
[2] = LC-MS/MS profiling of TCS metabolism in mice (TCS via diet for 4 weeks); conditions: for concentration of TCS, TCS-G, TCS-Sulfate: individual mice

In the case of `O=C(O)C1OC(Oc2cc(Cl)ccc2Oc2ccc(Cl)cc2Cl)C(O)C(O)C1O` (centres unmarked) [TCS-G, triclosan-glucuronide], the Catalytic efficiency [1] was 221350 M⁻¹ s⁻¹ and 261200 M⁻¹ s⁻¹ and 185500 M⁻¹ s⁻¹, the Catalytic efficiency ([1]; Enzyme: B. uniformis 2, Fig. 3b, replicates 1-3) was 26480 M⁻¹ s⁻¹ and 25620 M⁻¹ s⁻¹ and 34030 M⁻¹ s⁻¹ and the Catalytic efficiency ([1]; Enzyme: Clostridiales sp., Fig. 3b, replicates 1-3) was 421200 M⁻¹ s⁻¹ and 564000 M⁻¹ s⁻¹ and 643571 M⁻¹ s⁻¹. For the same compound, the Catalytic efficiency ([1]; Enzyme: E. coli, Fig. 3b, replicates 1-3) was 25610 M⁻¹ s⁻¹ and 27630 M⁻¹ s⁻¹ and 30620 M⁻¹ s⁻¹, the Catalytic efficiency ([1]; Enzyme: E. eligens, Fig. 3b, replicates 1-3) was 789000 M⁻¹ s⁻¹ and 987900 M⁻¹ s⁻¹ and 767700 M⁻¹ s⁻¹ and the Catalytic efficiency ([1]; Enzyme: Eubacterium sp. CAG: 76, Fig. 3b, replicates 1-3) was 294800 M⁻¹ s⁻¹ and 499700 M⁻¹ s⁻¹ and 451000 M⁻¹ s⁻¹. For the same compound, the Catalytic efficiency ([1]; Enzyme: F. prausnitzii 2-L1, Fig. 3b, replicates 1-3) was 876200 M⁻¹ s⁻¹ and 975000 M⁻¹ s⁻¹ and 757000 M⁻¹ s⁻¹, the Catalytic efficiency ([1]; Enzyme: F. prausnitzii, Fig. 3b, replicates 1-3) was 373850 M⁻¹ s⁻¹ and 362000 M⁻¹ s⁻¹ and 260800 M⁻¹ s⁻¹ and the Catalytic efficiency ([1]; Enzyme: R. gnavus 3, Fig. 3b, replicates 1-3) was 816300 M⁻¹ s⁻¹ and 891300 M⁻¹ s⁻¹ and 748300 M⁻¹ s⁻¹. For the same compound, the Catalytic efficiency ([1]; Enzyme: R. hominis 2, Fig. 3b, replicates 1-3) was 168600 M⁻¹ s⁻¹ and 249500 M⁻¹ s⁻¹ and 277800 M⁻¹ s⁻¹, the Catalytic efficiency ([1]; Enzyme: R. hominis 3, Fig. 3b, replicates 1-3) was 801500 M⁻¹ s⁻¹ and 763200 M⁻¹ s⁻¹ and 1075600 M⁻¹ s⁻¹ and the Catalytic efficiency ([1]; Enzyme: R. inulinvorans, Fig. 3b, replicates 1-3) was 450800 M⁻¹ s⁻¹ and 617200 M⁻¹ s⁻¹ and 689000 M⁻¹ s⁻¹. For the same compound, the “concentration of TCS, TCS-G, TCS-Sulfate” value ([2]; Cecum (digesta), 80 ppm TCS via diet 4 weeks) was 0.45 pmol/mg and 0.99 pmol/mg and 0.44 pmol/mg and 0.88 pmol/mg and 0.62 pmol/mg and 0.91 pmol/mg, the “concentration of TCS, TCS-G, TCS-Sulfate” value ([2]; Colon digesta, 1 ppm TCS in diet 4 weeks) was 0 pmol/mg and the “concentration of TCS, TCS-G, TCS-Sulfate” value ([2]; Colon digesta, 10 ppm TCS in diet 4 weeks) was 0.02 pmol/mg. The “concentration of TCS, TCS-G, TCS-Sulfate” value ([2]; Colon digesta, 80 ppm TCS in diet 4 weeks) was 0.1 pmol/mg, the “concentration of TCS, TCS-G, TCS-Sulfate” value ([2]; Feces, 1 ppm TCS in diet 4 weeks) was 0.06 pmol/mg and the “concentration of TCS, TCS-G, TCS-Sulfate” value ([2]; Feces, 10 ppm TCS in diet 4 weeks) was 0.13 pmol/mg. For the same compound, the “concentration of TCS, TCS-G, TCS-Sulfate” value ([2]; Feces, 80 ppm TCS in diet 4 weeks) was 0.35 pmol/mg and 0.43 pmol/mg, the “concentration of TCS, TCS-G, TCS-Sulfate” value ([2]; Heart, 80 ppm TCS via diet 4 weeks) was 2.11 pmol/mg and 1.13 pmol/mg and 0.90 pmol/mg and 1.39 pmol/mg and the “concentration of TCS, TCS-G, TCS-Sulfate” value ([2]; SI 1st section (digesta), 80 ppm TCS via diet 4 weeks) was 14.84 pmol/mg and 26.51 pmol/mg and 44.77 pmol/mg and 37.15 pmol/mg. For the same compound, the “concentration of TCS, TCS-G, TCS-Sulfate” value ([2]; SI 2nd section (digesta), 80 ppm TCS via diet 4 weeks) was 56.00 pmol/mg and 24.46 pmol/mg and 19.60 pmol/mg and 25.12 pmol/mg and 26.25 pmol/mg and 17.70 pmol/mg and 32.78 pmol/mg and 21.27 pmol/mg and 57.45 pmol/mg and 7.43 pmol/mg, the “concentration of TCS, TCS-G, TCS-Sulfate” value ([2]; SI 3rd section (digesta), 80 ppm TCS via diet 4 weeks) was 27.59 pmol/mg and 32.96 pmol/mg and 20.86 pmol/mg and 36.42 pmol/mg and 26.32 pmol/mg and 29.79 pmol/mg and 32.41 pmol/mg and 48.40 pmol/mg and 60.13 pmol/mg and 35.24 pmol/mg and the “concentration of TCS, TCS-G, TCS-Sulfate” value ([2]; SI 4th section (digesta), 80 ppm TCS via diet 4 weeks) was 46.08 pmol/mg and 59.25 pmol/mg and 48.99 pmol/mg and 79.17 pmol/mg and 94.49 pmol/mg and 43.76 pmol/mg and 46.26 pmol/mg and 23.11 pmol/mg and 8.33 pmol/mg and 51.24 pmol/mg. The “share of TCS metabolites found” value ([2]; digesta of the 4th section of the mouse small intestine, 80 ppm TCS via diet 4 weeks) was 55.4% and the “share of TCS metabolites found” value ([2]; fecal content, 80 ppm TCS via diet 4 weeks) was 0.7%.
